Source: patent US20170304388A1, “NEW INDICATION OF CARDIOVASCULAR DRUGS FOR PREPARATION OF CANCER INHIBITION PHARMACEUTICAL COMPOSITION” (LAUNX BIOMEDICAL CO., LTD., priority 2014, published 2017)
Counter-ions that a name gives are not always drawn. Like-named read-outs stand apart in the source and are kept apart here.

Columns and labels:
Type in all cases: cell-based
[1] = test system: MCF7 (Mammary Gland, Adenocarcinoma); assay: Cell viability analysis (WST-1), MCF7; conditions: WST-1, OD450 nm; for viability at 10 µM: Homo sapiens, read-out: survival rate (viability) of cancer cells, MCF7
[2] = test system: MKN-45 (Gastric Adenocarcinoma); assay: Cell viability analysis (WST-1), MKN-45; conditions: WST-1, OD450 nm; for viability at 10 µM: Homo sapiens, read-out: survival rate (viability) of cancer cells, MKN-45
[3] = test system: HeLa (Cervix Adenocarcinoma); assay: Cell viability analysis (WST-1), HeLa; conditions: Homo sapiens, HeLa, WST-1, OD450 nm, read-out: survival rate (viability) of cancer cells, HeLa
cancer cell lines = assay: Growth inhibitory effects on the panel of cancer cell lines; conditions: drug 10 μM, 72 hours; for Numbers of inhibitory effect on cancer cell line: count of cancer cell lines inhibited; for inhibition effect on different cancer cell lines (in words): WST-1
[4] = test system: HL-60 (Acute Promyelocytic Leukemia); assay: Cell viability analysis (WST-1), HL-60; conditions: Table 3, drug 10 μM, 72 hours, WST-1, OD450 nm; for viability at 10 µM: Homo sapiens, HL-60, read-out: survival rate (viability) of cancer cells, HL-60
[5] = test system: AGS (Gastric Adenocarcinoma); assay: Cell viability analysis (WST-1), AGS; conditions: WST-1, OD450 nm; for viability at 10 µM: read-out: survival rate (viability) of cancer cells, AGS
[6] = test system: LoVo (Colorectal Adenocarcinoma); assay: Cell viability analysis (WST-1), LoVo; conditions: WST-1, OD450 nm; for viability at 10 µM: Homo sapiens, LoVo, read-out: survival rate (viability) of cancer cells, LoVo
[7] = test system: TSGH-8301 (Urinary Bladder Carcinoma); assay: Cell viability analysis (WST-1), TSGH-8301; conditions: WST-1, OD450 nm; for viability at 10 µM: read-out: survival rate (viability) of cancer cells, TSGH
[8] = test system: A549 (Lung Adenocarcinoma); assay: Cell viability analysis (WST-1), A549; conditions: WST-1, OD450 nm; for viability at 10 µM: Homo sapiens, read-out: survival rate (viability) of cancer cells, A549
[9] = test system: A375 (Amelanotic Melanoma); assay: Cell viability analysis (WST-1), A375; conditions: WST-1, OD450 nm, lower viability = better inhibition; for viability at 10 µM: Homo sapiens, read-out: survival rate (viability) of cancer cells, A375
[10] = test system: HCT116 (Colorectal Carcinoma); assay: Cell viability analysis (WST-1), HCT116; conditions: WST-1, OD450 nm; for viability at 10 µM: Homo sapiens, HCT-116, 72 h, Table 3, drug 10 μM, read-out: survival rate (viability) of cancer cells, HCT116 (WT); for survival rate (viability) of cancer cells, HCT116 (WT): Table 3, drug 10 μM, 72 hours
[11] = test system: H1650 (Lung Adenocarcinoma); assay: Cell viability analysis (WST-1), H1650; conditions: WST-1, OD450 nm; for viability at 10 µM: Homo sapiens, read-out: survival rate (viability) of cancer cells, H1650
[12] = test system: PC3 (Prostate Adenocarcinoma); assay: Cell viability analysis (WST-1), PC3; conditions: WST-1, OD450 nm; for viability at 10 µM: read-out: survival rate (viability) of cancer cells, PC3
[13] = test system: HepG2 (Hepatocellular Carcinoma); assay: Cell viability analysis (WST-1), HepG2; conditions: WST-1, OD450 nm; for viability at 10 µM: Homo sapiens, read-out: survival rate (viability) of cancer cells, HepG2
[14] = MCF7, 72 h, Table 3, drug 10 μM
[15] = MKN-45, 72 h, Table 3, drug 10 μM
[16] = A549, 72 h, Table 3, drug 10 μM
[17] = A-375, 72 h, Table 3, drug 10 μM
[18] = NCI-H1650, 72 h, Table 3, drug 10 μM
[19] = HepG2, 72 h, Table 3, drug 10 μM

Compound	viability at 10 µM [1, 14] [%]	viability at 10 µM [2, 15] [%]	viability at 10 µM ([3]; 72 h, Table 3, drug 10 μM) [%]	Numbers of inhibitory effect on cancer cell line (cancer cell lines)	inhibition effect on different cancer cell lines (in words) (cancer cell lines)	viability at 10 µM [4] [%]	viability at 10 µM ([5]; 72 h, Table 3, drug 10 μM) [%]	viability at 10 µM ([6]; 72 h, Table 3, drug 10 μM) [%]	viability at 10 µM ([7]; 72 h, Table 3, drug 10 μM) [%]	viability at 10 µM [8, 16] [%]	viability at 10 µM [9, 17] [%]	viability at 10 µM [10] [%]	viability at 10 µM [11, 18] [%]	viability at 10 µM ([12]; 72 h, Table 3, drug 10 μM) [%]	viability at 10 µM [13, 19] [%]	survival rate (viability) of cancer cells, HL-60 [4]	survival rate (viability) of cancer cells, TSGH ([7]; Table 3, drug 10 μM, 72 hours)	survival rate (viability) of cancer cells, A375 ([9]; Table 3, drug 10 μM, 72 hours)	survival rate (viability) of cancer cells, HCT116 (WT) [10]	further results
Cc1cccc(Nc2ccccc2C(=O)O)c1C [Mefenamic acid]	95.3	115	76.1	0	significant inhibition effect	113	71.1	83.3	118	116	78.7	85.9	73.9	103						
Cc1[nH]c(=O)c(C#N)cc1-c1ccncc1 [Milrinone (Primacor), Milrinone]	98.5	92.9	99	0	significant inhibition effect	112	130	90.5		90.9		104	86.2	92	98.5					
O=C(O)/C=C/c1ccc(Cn2ccnc2)cc1 [Ozagrel]	102	93.9	77.7	0	significant inhibition effect	118	98.5	80.6	69.4	77.7	74.7	102	80.6		91.2					
COc1ccc([C@H]2CNC(=O)C2)cc1OC1CCCC1 [S-(+)-Rolipram]				0	significant inhibition effect											107.3	81.1	77.0	86.2	survival rate (viability) of cancer cells, MCF7 ([1]; Table 3, drug 10 μM, 72 hours): 80.4; survival rate (viability) of cancer cells, LoVo ([6]; Table 3, drug 10 μM, 72 hours): 94.1; survival rate (viability) of cancer cells, HepG2 ([13]; Table 3, drug 10 μM, 72 hours): 90.4; survival rate (viability) of cancer cells, PC3 ([12]; Table 3, drug 10 μM, 72 hours): 89.3
Cc1cccc(C)c1N=C1NCCCS1 [Xylazine HCl]				0	significant inhibition effect	116														viability at 10 µM ([1]; MCF7, Table 3, drug 10 μM, 72 hours): 104%; viability at 10 µM ([2]; MKN-45, Table 3, drug 10 μM, 72 hours): 88.7%; viability at 10 µM ([3]; Table 3, drug 10 μM, 72 hours): 65.1%; viability at 10 µM ([5]; Table 3, drug 10 μM, 72 hours): 86.3%; viability at 10 µM ([6]; Table 3, drug 10 μM, 72 hours): 96.6%; viability at 10 µM ([7]; Table 3, drug 10 μM, 72 hours): 61.5%; viability at 10 µM ([8]; A549, Table 3, drug 10 μM, 72 hours): 71.7%; viability at 10 µM ([9]; A-375, Table 3, drug 10 μM, 72 hours): 63.5%; viability at 10 µM ([13]; HepG2, Table 3, drug 10 μM, 72 hours): 83.5%; viability at 10 µM ([11]; NCI-H1650, Table 3, drug 10 μM, 72 hours): 67.2%; viability at 10 µM ([12]; Table 3, drug 10 μM, 72 hours): 105%
Gabexate mesylate				0	significant inhibition effect											117.6	70.9	77.9	114.9	survival rate (viability) of cancer cells, MKN-45 ([2]; Table 3, drug 10 μM, 72 hours): 81.1; survival rate (viability) of cancer cells, AGS ([5]; Table 3, drug 10 μM, 72 hours): 75.0; survival rate (viability) of cancer cells, A549 ([8]; Table 3, drug 10 μM, 72 hours): 77.3; survival rate (viability) of cancer cells, H1650 ([11]; Table 3, drug 10 μM, 72 hours): 69.8
